In patent US4739106A, “3-amino-3-carbamoyloxyalkylacrylic acid intermediates to dihydropyridines” (Banyu Pharmaceutical Co., Ltd., priority 1982, dated 1988):
Converted amounts (≈) assume the structure as drawn.

Key:
[1] = system: isolated hearts of rabbits (coronary vessels); assay: Coronary vasodilation, Langendorff method, isolated hearts of rabbits; details: Oryctolagus cuniculus, dosage of a sample required to increase the coronary outflow by 50%, isolated rabbit hearts, read-out: Coronary vasodilation ICD50
Procedure: (a) Coronary vasodilation
According to Langendorff method (O. Langendorff; Pflugers arch. ges. phisiol., 61, 291-332 (1895)), the coronary vasodilation effects were tested using isolated hearts of rabbits. The strength of coronary vasodilation was evaluated by ICD50 (g/ml) i.e. the dosage of a sample required to increase the coronary outflow by 50%.

[2] = Acute toxicity, i.v., DM strain male mice, up-and-down method; details: mouse, in vivo, iv
Beagle dogs = assay: Coronary effects on anesthetized beagle dogs (CF, FAF, BP, HR), i.v.; format: in vivo, dog (beagle); details: for CF % increase: coronary blood flow; for CF % increase / FAF % increase / HR % increase: vs saline control; for FAF % increase: femoral artery blood flow; for HR % increase: heart rate; for BP % decrease: systemic blood pressure, vs control
Procedure: (c) Coronary effects on dogs
Beagle dogs (13 to 16 kg, .male.) were subjected to thoracotomy under anesthesia with sodium pentobarbital, and a probe was attached to the heart left coronary anterior descending artery of each animal, whereupon the coronary blood flow (CF) was measured by an electromagnetic flowmeter. On the other hand, a probe was attached to the exposed right femoral artery, and the femoral artery blood flow (FAF) was measured by an electromagnetic flowmeter. A canule was inserted to the left femoral artery, and the systemic blood pressure (BP) was bloody measured by a transducer.
The heart rate (HR) was measured by an electrocardiogram.
The sample solution was intravenously injected to the right femoral vein.
The coronary blood flow (CF), the femoral artery blood flow (FAF) and the heart rate (HR) were represented by a % increase upon the injection of each sample as compared with the respective control value upon the injection of a saline.
The systemic blood pressure (BP) was represented by a % decrease as compared with the control.

[3] = system: cerebral blood flow and peripheral blood flow; assay: Separate pharmacological test: cerebral and peripheral blood flow, i.v.; format: in vivo; details: 1 to 10 μg/kg intravenously

CNC(=O)OCC1=C(C(=O)OC)C(c2cccc([N+](=O)[O-])c2)C(C(=O)OC)=C(C)N1 (stereo not drawn) [(4)]
EC50 [1]: 0.36 µg/mL (≈ 0.858 µM) | LD50 [2]: 84 mg/kg

CCOC(=O)C1=C(C)NC(COC(N)=O)=C(C(=O)OCC)C1c1ccccc1[N+](=O)[O-] (stereo not drawn) [(5), 2-Carbamoyloxymethyl-6-methyl-4-(o-nitrophenyl)-3,5-diethoxycarbonyl-1,4-dihydropyridine]
CF % increase (Beagle dogs; 1 μg/kg i.v.): 13% | CF % increase (Beagle dogs; 3 μg/kg i.v.): 38% | CF % increase (Beagle dogs; 10 μg/kg i.v.): 86% | FAF % increase (Beagle dogs; 1 μg/kg i.v.): 8% | FAF % increase (Beagle dogs; 3 μg/kg i.v.): 35% | FAF % increase (Beagle dogs; 10 μg/kg i.v.): 82% | HR % increase (Beagle dogs; 1 μg/kg i.v.): 0% | HR % increase (Beagle dogs; 3 μg/kg i.v.): 0% | HR % increase (Beagle dogs; 10 μg/kg i.v.): -10% | BP % decrease (Beagle dogs; 1 μg/kg i.v.): 0% | BP % decrease (Beagle dogs; 3 μg/kg i.v.): 2% | BP % decrease (Beagle dogs; 10 μg/kg i.v.): 22%

CCOC(=O)C1=C(C)NC(COC(=O)NC)=C(C(=O)OCC)C1c1cccc([N+](=O)[O-])c1 (stereo not drawn) [(2)]
EC50 [1]: 0.32 µg/mL (≈ 0.715 µM) | LD50 [2]: 71 mg/kg

COC(=O)C1=C(COC(N)=O)NC(C)=C(C(=O)OCCN2CCOCC2)C1c1cccc([N+](=O)[O-])c1 (stereo not drawn) [(18), 2-Carbamoyloxymethyl-6-methyl-4-(m-nitrophenyl)-3-methoxycarbonyl-5-(β-morpholinoethoxy)carbonyl-1,4-dihydropyridine]
LD50 [2]: 200 mg/kg

CCCOCCOC(=O)C1=C(C)NC(COC(=O)NC)=C(C(=O)OCCOCCC)C1c1cccc([N+](=O)[O-])c1 (stereo not drawn) [(13), 2-N--Methylcarbamoyloxymethyl,-6-methyl-4-(m-nitrophenyl)-3,5-bis[(β-propoxyethoxy)carbonyl]-1,4-dihydropyridine]
Increase of cerebral blood flow [3]: 40 to 50% | Increase of peripheral blood flow [3]: 40 to 50%

CCOC(=O)C1=C(C)NC(COC(N)=O)=C(C(=O)OCC)C1c1cccc([N+](=O)[O-])c1 (stereo not drawn) [(1), 2-Carbamoyloxymethyl-6-methyl-4-(m-nitrophenyl)-3,5-diethoxycarbonyl-1,4-dihydropyridine]
Increase of cerebral blood flow [3]: 40 to 50% | Increase of peripheral blood flow [3]: 40 to 50%

CCCOCCOC(=O)C1=C(C)NC(COC(N)=O)=C(C(=O)OCCOCCC)C1c1cccc([N+](=O)[O-])c1 (stereo not drawn) [(12), 2-Carbamoyloxymethyl-6-methyl-4-(m-nitrophenyl)-3,5-bis[(β-propoxyethoxy)carbonyl]-1,4-dihydropyridine]
Increase of cerebral blood flow [3]: 40 to 50% | Increase of peripheral blood flow [3]: 40 to 50%

COC(=O)C1=C(COC(N)=O)NC(C)=C(C(=O)OCCN(C)Cc2ccccc2)C1c1cccc([N+](=O)[O-])c1 (stereo not drawn) [(15), 2-Carbamoyloxymethyl-6-methyl-4-(m-nitrophenyl)-3-methoxycarbonyl-5-(β-N--methylbenzylaminoethoxy)carbonyl-1,4-dihydropyridine]
LD50 [2]: 200 mg/kg
